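Where inhibition never reached the appropriate level, the endpoint shown equals the highest concentration tested. Otherwise, values were interpolated linearly from a five-concentration, 48-hour dose response in 96-well plates. GI50: concentration for 50% inhibition of growth. TGI denotes the concentration required for complete inhibition of growth.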 Where a SMILES comes first, the peptide text is derived from it. [ ]: non-standard residue; d: D form. The star is where a group is joined. ξ: configuration not given here. ξD = NC(CC(=O)O)C(=O)O; Boc = CC(C)(C)OC(=O)*; Aib = CC(C)(N)C(=O)O; OtBu = CC(C)(C)O*
Key:
Assay in all cases: DTP human tumour cell line panel, 48 h; in the data active = GI50 below about 0.43 µM; inactive = the rest
[1] = tested on: NCI-H522 lung
[2] = tested on: OVCAR-4 ovarian
[3] = tested on: NCI-H23 lung
[4] = tested on: RXF 393 renal
[5] = tested on: LOX IMVI melanoma
[6] = tested on: K-562 leukemia
[7] = tested on: SK-MEL-28 melanoma
[8] = tested on: OVCAR-8 ovarian
[9] = tested on: SNB-19 CNS
[10] = tested on: HS 578T breast
[11] = tested on: COLO 205 colon
[12] = tested on: SF-295 CNS
[13] = tested on: 786-0 renal
[14] = tested on: IGROV1 ovarian
[15] = tested on: SK-MEL-2 melanoma
[16] = tested on: SW-620 colon
[17] = tested on: MOLT-4 leukemia
[18] = tested on: SN12C renal
[19] = tested on: HCT-116 colon
[20] = tested on: HOP-92 NSCLC
[21] = tested on: MDA-MB-231 breast
[22] = tested on: ACHN renal
[23] = tested on: UO-31 renal
[24] = tested on: HCC-2998 colon
[25] = tested on: UACC-257 melanoma
[26] = tested on: NCI-H460 lung
[27] = tested on: SF-268 CNS
[28] = tested on: OVCAR-5 ovarian
[29] = tested on: M14 melanoma
[30] = tested on: TK-10 renal
[31] = tested on: PC-3 prostate
[32] = tested on: MALME-3M melanoma
[33] = tested on: NCI-H226 lung
[34] = tested on: UACC-62 melanoma
[35] = tested on: HL-60(TB) leukemia
[36] = tested on: EKVX NSCLC
[37] = tested on: MDA-MB-435
[38] = tested on: T-47D breast
[39] = tested on: HOP-62 NSCLC
[40] = tested on: CAKI-1 renal
[41] = tested on: U251 CNS
[42] = tested on: A549 NSCLC
[43] = tested on: BT-549 breast
[44] = tested on: SNB-75 CNS
[45] = tested on: RPMI-8226 leukemia
[46] = tested on: HT29 colon
[47] = tested on: OVCAR-3 ovarian
[48] = tested on: KM12 colon
[49] = tested on: SF-539 CNS
[50] = tested on: NCI/ADR-RES ovarian
[51] = tested on: HCT-15 colon
[52] = tested on: A498 renal
[53] = tested on: MCF7 breast
[54] = tested on: SK-MEL-5 melanoma
[55] = tested on: SK-OV-3 ovarian
[56] = tested on: CCRF-CEM leukemia
[57] = tested on: DU-145 prostate

COc1ccc(OC)c(/C=C/C(=O)N/N=C/c2ccccc2)c1
9.96 µM: TGI [45]
> 100 µM: TGI [2] | TGI [5] | TGI [6] | TGI [7] | TGI [9] | TGI [10] | TGI [14] | TGI [17] | TGI [21] | TGI [22] | TGI [27] | TGI [28] | TGI [30] | TGI [32] | TGI [33] | TGI [38] | TGI [39] | TGI [41] | TGI [42] | TGI [46] | TGI [47] | TGI [51] | TGI [52] | TGI [53] | TGI [55] | TGI [56]
13.7 µM: TGI [35]
6.77 µM: TGI [29]
6.66 µM: TGI [40]
10.2 µM: TGI [19]
90.4 µM: TGI [43]
37.3 µM: TGI [44]
52.1 µM: TGI [31]
4.29 µM: TGI [50]
85.5 µM: TGI [23]
33.6 µM: TGI [25]
14.6 µM: TGI [54]
87 µM: TGI [3]
72.5 µM: TGI [13]
11.1 µM: TGI [12]
1.98 µM: TGI [37]
21 µM: TGI [24]
25.1 µM: TGI [49]
39.9 µM: TGI [18]
active: GI50 [37] 0.283 µM
9.32 µM: TGI [15]
inactive: GI50 [1] 1.57 µM | GI50 [2] 14.3 µM | GI50 [3] 5.4 µM | GI50 [4] 3.9 µM | GI50 [5] 4.12 µM | GI50 [6] 0.488 µM | GI50 [7] 8.89 µM | GI50 [8] 5.44 µM | GI50 [9] 4.12 µM | GI50 [10] 9.07 µM | GI50 [11] 4.8 µM | GI50 [12] 1 µM | GI50 [13] 7 µM | GI50 [14] 1.51 µM | GI50 [15] 2.98 µM | GI50 [16] 1.5 µM | GI50 [17] 4.45 µM | GI50 [18] 4.17 µM | GI50 [19] 2.64 µM | GI50 [20] 1.56 µM | GI50 [21] 7.24 µM | GI50 [22] 9.66 µM | GI50 [23] 5.9 µM | GI50 [24] 2.35 µM | GI50 [25] 5.76 µM | GI50 [26] 2.07 µM | GI50 [27] 7.56 µM | GI50 [28] 18 µM | GI50 [29] 2.16 µM | GI50 [30] 16.6 µM | GI50 [31] 5.86 µM | GI50 [32] 2.12 µM | GI50 [33] 30.8 µM | GI50 [34] 3.55 µM | GI50 [35] 2.03 µM | GI50 [36] 1.59 µM | GI50 [38] 4.86 µM | GI50 [39] 4.95 µM | GI50 [40] 0.443 µM | GI50 [41] 3.68 µM | GI50 [42] 4.29 µM | GI50 [43] 4.05 µM | GI50 [44] 4.39 µM | GI50 [45] 2.99 µM | GI50 [46] 2.1 µM | GI50 [47] 3.15 µM | GI50 [48] 0.834 µM | GI50 [49] 4.42 µM | GI50 [50] 1.46 µM | GI50 [51] 3.62 µM | GI50 [52] 12 µM | GI50 [53] 3.79 µM | GI50 [54] 2.95 µM | GI50 [55] 12 µM | GI50 [56] 3.97 µM
5.62 µM: TGI [26]
13.3 µM: TGI [20]
6.23 µM: TGI [16]
35.1 µM: TGI [11]
75.8 µM: TGI [34]
41.7 µM: TGI [1]
3.75 µM: TGI [48]
94.6 µM: TGI [8]
26.6 µM: TGI [4]
59.5 µM: TGI [36]

COc1ccc(-c2nc3c(-c4ccccc4)nc(-c4ccccc4)cn3c2-c2ccc(OC)cc2)cc1
> 100 µM: TGI [2] | TGI [3] | TGI [4] | TGI [5] | TGI [6] | TGI [7] | TGI [8] | TGI [9] | TGI [10] | TGI [11] | TGI [12] | TGI [13] | TGI [16] | TGI [18] | TGI [19] | TGI [20] | TGI [21] | TGI [22] | TGI [24] | TGI [25] | TGI [26] | TGI [27] | TGI [28] | TGI [29] | TGI [30] | TGI [31] | TGI [32] | TGI [34] | TGI [36] | TGI [37] | TGI [38] | TGI [39] | TGI [40] | TGI [41] | TGI [42] | TGI [43] | TGI [44] | TGI [45] | TGI [46] | TGI [47] | TGI [48] | TGI [49] | TGI [50] | TGI [51] | TGI [52] | TGI [53] | TGI [54] | TGI [55] | TGI [57]
52.6 µM: TGI [35]
inactive: GI50 [2] > 100 µM | GI50 [3] > 100 µM | GI50 [4] 62.7 µM | GI50 [5] > 100 µM | GI50 [6] > 100 µM | GI50 [7] > 100 µM | GI50 [8] > 100 µM | GI50 [9] > 100 µM | GI50 [10] 30.6 µM | GI50 [11] > 100 µM | GI50 [12] > 100 µM | GI50 [13] 49.5 µM | GI50 [16] > 100 µM | GI50 [18] > 100 µM | GI50 [19] > 100 µM | GI50 [20] 54.6 µM | GI50 [21] 68.5 µM | GI50 [22] > 100 µM | GI50 [24] > 100 µM | GI50 [25] > 100 µM | GI50 [26] > 100 µM | GI50 [27] > 100 µM | GI50 [28] > 100 µM | GI50 [29] > 100 µM | GI50 [30] > 100 µM | GI50 [31] > 100 µM | GI50 [32] > 100 µM | GI50 [34] 88.6 µM | GI50 [35] 3.28 µM | GI50 [36] > 100 µM | GI50 [37] > 100 µM | GI50 [38] > 100 µM | GI50 [39] 40.6 µM | GI50 [40] > 100 µM | GI50 [41] > 100 µM | GI50 [42] > 100 µM | GI50 [43] > 100 µM | GI50 [44] 26.8 µM | GI50 [45] > 100 µM | GI50 [46] > 100 µM | GI50 [47] > 100 µM | GI50 [48] > 100 µM | GI50 [49] 88.2 µM | GI50 [50] > 100 µM | GI50 [51] > 100 µM | GI50 [52] > 100 µM | GI50 [53] > 100 µM | GI50 [54] > 100 µM | GI50 [55] 82.5 µM | GI50 [57] > 100 µM

COC(=O)C(C)(C)NC(=O)C(C)(C)NC(=O)C(CC(=O)OC(C)(C)C)NC(=O)OC(C)(C)C (stereo unspecified) (Boc-[ξD](OtBu)-[Aib]-[Aib]-OMe)
> 100 µM: TGI [1] | TGI [2] | TGI [3] | TGI [4] | TGI [5] | TGI [6] | TGI [7] | TGI [8] | TGI [9] | TGI [10] | TGI [11] | TGI [12] | TGI [13] | TGI [14] | TGI [15] | TGI [16] | TGI [17] | TGI [19] | TGI [20] | TGI [21] | TGI [22] | TGI [23] | TGI [25] | TGI [26] | TGI [27] | TGI [28] | TGI [29] | TGI [30] | TGI [31] | TGI [32] | TGI [33] | TGI [34] | TGI [36] | TGI [37] | TGI [38] | TGI [39] | TGI [40] | TGI [41] | TGI [42] | TGI [43] | TGI [44] | TGI [45] | TGI [46] | TGI [47] | TGI [48] | TGI [49] | TGI [50] | TGI [51] | TGI [52] | TGI [53] | TGI [54] | TGI [55] | TGI [57] | TGI [56]

Reference: PubChem BioAssay (NCI)
